According to patent EP3305318A1, “[6R]-5,10-METHYLENETETRAHYDROFOLATE IN 5-FLUOROURACIL BASED CHEMOTHERAPY” (Isofol Medical AB, priority 2016, dated 2018):
Where two headings read alike, the source gives them in different places.

Experiments:
metastatic breast cancer = details: 5-FU combined with cyclophosphamide and methotrexate (CMF); cited from earlier work
[1] = system: advanced and recurring head and neck squamous cell cancer; details: 5-FU in combination therapies with platinum compounds; cited from earlier work
colorectal tumors = details: cited from earlier work
solid tumours = details: cited from earlier work
TS = target: T1, TS (Lacticaseibacillus casei, UniProt P00469); details: cited from earlier work
T1 sequence (P00469 1-316): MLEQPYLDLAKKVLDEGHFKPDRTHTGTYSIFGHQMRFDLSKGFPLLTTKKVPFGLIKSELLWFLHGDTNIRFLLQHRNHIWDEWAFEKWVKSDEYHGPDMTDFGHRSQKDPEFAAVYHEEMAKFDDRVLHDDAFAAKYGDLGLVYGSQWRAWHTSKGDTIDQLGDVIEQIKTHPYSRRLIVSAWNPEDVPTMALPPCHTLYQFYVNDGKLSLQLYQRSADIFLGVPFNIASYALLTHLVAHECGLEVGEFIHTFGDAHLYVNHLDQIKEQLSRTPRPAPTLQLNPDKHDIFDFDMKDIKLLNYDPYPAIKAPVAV

[2] = system: previously untreated metastatic colorectal cancer; details: Phase II trial; cited from earlier work
pancreas cancer = details: CoFactor combined with 5-FU, phase I/II; cited from earlier work
colorectal cancer [3] = details: Phase IIb study; cited from earlier work
colorectal cancer [4] = assay: 5-FU bolus followed by multiple IV boluses of [6R]-MTHF in colorectal cancer patients (Phase I/II dose cohort trial); type: in vivo, human; details: initial administration of 5-FU followed by multiple IV boluses of [6R]-MTHF, interval of about 10 min - 4 hours between each bolus
Description: As used herein, the term ORR shall refer to the Objective Response Rate, ie. the proportion of patients with reduction in tumor burden of a predefined amount. This shall be calculated as follows: ORR = Sum of partial responses plus complete responses as per RECIST 1.1 (a set of published rules that define when tumours in cancer patients progress during treatments, the responses being defined as: • Complete Response: Disappearance of all target lesions. • Partial Response: At least a 30% decrease in the sum of the diameters of target lesions, taking as reference the baseline sum diameters. (Eisenhauer EA, Therasse P, Bogaerts J, Schwartz LH, Sargent D, Ford R, et al. New response evaluation criteria in solid tumours: revised RECIST guideline (version 1.1). Eur J Cancer. 2009 Jan; 45(2):228-47)
The safety and efficacy of [6R]-5,10-methylenetetrahydrofolate is analyzed in an open-label, multiple-site, Phase I/II Dose Cohort Trial in combination with a fixed dose of 5-Fluorouracil (5-FU) alone or together with a fixed dose of Oxaliplatin or Irinotecan in patients with stage IV colorectal cancer. […]
[6R]-5,10-Methylenetetrahydrofolic acid is formulated as a lyophylised powder containing 100 mg per vial (calculated as free acid). […]

## O=c1[nH]cc(F)c(=O)[nH]1 [5-FU, 5-fluorouracil]
Metastatic breast cancer
  OS: around 20 months
  reponse rate: around 20%
[1]
  Response rates: around 30%
  survival time: around 6 months
Colorectal tumors; 5-FU given as a monotherapy
  response rate: around 10%
Solid tumours; 5-FU alone
  overall response rate: 10-15%

## Nc1nc2c(c(=O)[nH]1)N1CN(c3ccc(C(=O)N[C@@H](CCC(=O)O)C(=O)O)cc3)C[C@@H]1CN2 [(6S)-isomer]
TS
  effect on the natural [6R]-isomer as co-substrate for TS: partial competitive inhibitor

## Nc1nc2c(c(=O)[nH]1)N1CN(c3ccc(C(=O)N[C@@H](CCC(=O)[O-])C(=O)[O-])cc3)CC1CN2.[Ca+2] (stereo partly shown) [CoFactor®, [6R,S]-5,10-methylene-THF Ca salt]
[2]
  response rate: 35%
Pancreas cancer
  clinical benefit, defined as stable disease or tumor response: 40 % of patients
Colorectal cancer [3]
  efficacy or safety compared with leucovorin study arm: no significant differences

## Nc1nc2c(c(=O)[nH]1)N(C=O)C(CNc1ccc(C(=O)N[C@@H](CCC(=O)O)C(=O)O)cc1)CN2 (stereo partly shown) [LV, Leucovorin]
Colorectal tumors; Leucovorin (LV) added to 5-FU
  response rate: 21%
Solid tumours; LV added to 5-FU
  overall response rates: over 20%

## Nc1nc2c(c(=O)[nH]1)N1CN(c3ccc(C(=O)N[C@@H](CCC(=O)O)C(=O)O)cc3)C[C@H]1CN2 [[6R]-MTHF, [6R]-5,10-methylenetetrahydrofolate]
Colorectal cancer [4]
  ORRs (objective response rates): 50-60%
